Results taken from patent US11161885B2, “Antimicrobial protein” (CONSUMO EM VERDE—BIOTECNOLOGIA DAS PLANTAS, S.A., priority 2010, dated 2021).

Columns and labels:
Format in all cases: cell-based
[1] = test system: Listeria monocytogenes; assay: Time-kill curves for BLAD and/or EDTA; settings: EDTA at 0.1 mg/ml alone
Experimental: (§1) • MIC—Minimum Inhibitory Concentration: the lowest concentration of an antimicrobial that inhibits the visible growth of a microorganism. • MFC/MBC—Minimum Fungicidal/Bactericidal Concentration (or Minimal Lethal Concentration): the lowest concentration of an antimicrobial agent needed to kill 99.9% of the initial inoculum after 24 h under a standardized set of conditions. • Time-kill curves—Determination of the “killing” of an isolate over time by one or more antimicrobial agents under controlled conditions is known as the time-kill method. It is a broth based method where the rate of killing of a fixed inoculum is determined by sampling control (organism, no drug) and antimicrobial agent-containing tubes or flasks, at certain time intervals, and determining the survivor colony count (cfu/ml) by spreading each sample onto an agar plate.
(§2) Time-kill curves for BLAD and/or EDTA with (A) Listeria monocytogenes, (B) Pseudomonas aeruginosa and (C) Candida albicans: see FIG. 9.

[2] = test system: Pseudomonas aeruginosa; assay: Time-kill curves for BLAD and/or EDTA; settings: EDTA at 1 mg/ml alone
Experimental: as §1, §2

[3] = test system: Candida albicans; assay: Time-kill curve and growth curve for BLAD and/or EDTA; settings: EDTA at 0.1 mg/ml alone
Experimental: as §1, §2

[4] = test system: Candida albicans; assay: Growth curve in PDB pH 7 medium
Source text: Growth curve for BLAD with Candida albicans in PDB pH 7 medium: see FIG. 4.

Which “activity in time-kill curve” value [1] does the source give for `O=C(O)CN(CCN(CC(=O)O)CC(=O)O)CC(=O)O` [EDTA, ethylenediaminetetraacetic acid] here?
Its value is “neither BLAD at 10 μg/ml nor EDTA at 0.1 mg/ml inhibits growth”.

And the “activity in time-kill curve” value [2]?
Its value is “bacteriostatic”.

And the “activity in time-kill curve” value [3]?
Its value is “fungistatic”.

Which “activity in growth curve” value ([4]; 10 μg/ml) does the source give for `C[C@@H]1[C@H](O)[C@@H](C)/C=C/C=C/C=C/C=C/C=C/C=C/C=C/[C@H](O[C@@H]2O[C@H](C)[C@@H](O)[C@H](N)[C@@H]2O)C[C@@H]2O[C@](O)(C[C@@H](O)C[C@@H](O)[C@H](O)CC[C@@H](O)C[C@@H](O)CC(=O)O[C@H]1C)C[C@H](O)[C@H]2C(=O)O` [amphotericin B] here?
The value was “fungistatic”.

For `OC(Cn1cncn1)(Cn1cncn1)c1ccc(F)cc1F` [fluconazole], which “activity in growth curve” value ([4]; 100 μg/ml) is on record?
The value was “merely delays growth”.
